From PubChem BioAssay (NCI)
Several values for one entry are separate records, joined by “and”; a condition that tells them apart may be missing. Equal entries are not always repeated.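 48-hour exposure; five concentrations; linearly interpolated endpoints. Here, GI50 denotes the concentration required for 50% inhibition of growth. Definition used: TGI = concentration required for complete inhibition of growth.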 Where a SMILES comes first, the peptide text is derived from it. [ ]: non-standard residue; d: D form. The star is where a group is joined. ξ: configuration not given here. ξF = NC(Cc1ccccc1)C(=O)O; Cbz = O=C(OCc1ccccc1)*; Aib = CC(C)(N)C(=O)O

Experiments:
Assay in all cases: NCI anticancer screen, dose series, 48 h
ACHN renal = test system: ACHN renal
CCRF-CEM leukemia = test system: CCRF-CEM leukemia
HCT-116 colon = test system: HCT-116 colon
M14 melanoma = test system: M14 melanoma
MDA-MB-435 = test system: MDA-MB-435
NCI-H226 lung = test system: NCI-H226 lung
RXF 393 renal = test system: RXF 393 renal
SN12C renal = test system: SN12C renal
SR leukemia = test system: SR leukemia
UACC-62 melanoma = test system: UACC-62 melanoma
SK-MEL-2 melanoma = test system: SK-MEL-2 melanoma

Compound | TGI (ACHN renal) | TGI (CCRF-CEM leukemia) | TGI (HCT-116 colon) | TGI (M14 melanoma) | TGI (MDA-MB-435) | TGI (NCI-H226 lung) | TGI (RXF 393 renal) | TGI (SN12C renal) | TGI (SR leukemia) | TGI (UACC-62 melanoma) | TGI (SK-MEL-2 melanoma) | GI50 (HCT-116 colon) | GI50 (M14 melanoma) | GI50 (MDA-MB-435) | GI50 (SK-MEL-2 melanoma) | GI50 (SN12C renal) | GI50 (SR leukemia) | GI50 (UACC-62 melanoma)
CC(=O)OC[C@H]1O[C@@H](O[C@H]2[C@H](OC(C)=O)C=CO[C@@H]2COC(C)=O)C(OC(C)=O)[C@H]2OC(C)(C)O[C@H]21 (stereo partly specified) | > 100 µM | > 100 µM | > 100 µM | > 100 µM | > 100 µM | > 100 µM | > 100 µM | > 100 µM | > 100 µM | > 100 µM |  |  |  |  |  |  |  | 
CCN(CC)Cc1nc2sc3c(c2c(=O)n1-c1ccccc1)CCCC3 | 55.2 µM | > 100 µM | 39.4 µM | 30.2 µM |  | 33 µM | 37.6 µM | 37.8 µM | > 100 µM | 30.4 µM | 38.6 µM |  |  |  |  |  |  | 
CC(=O)NCCCCNCCCNC(C)=O | > 100 µM | > 100 µM | > 100 µM | > 100 µM | > 100 µM | > 100 µM | > 100 µM | > 100 µM |  | > 100 µM |  |  |  |  |  |  |  | 
CCCCCc1cc(OC(=O)c2c(O)cc(OC)cc2CCCCC)cc(O)c1C(=O)O | 35.9 µM | 47.8 µM |  | 38.1 µM |  |  | 30.8 µM | 32.8 µM |  | 28.9 µM | 31.6 µM |  |  |  |  |  |  | 
COC(=O)CCCc1ccc2c(c1)CC1(C2)Cc2cc3c(cc2C1)CCCC3 | > 100 µM |  | 15.9 µM | 68.2 µM | 40.3 µM | > 100 µM | 94.2 µM | > 100 µM | 0.713 µM | 67 µM | 57.1 µM |  |  |  |  |  |  | 
CC1OC(OCC2OC(Oc3c(-c4ccc(O)cc4)oc4cc(O)cc(O)c4c3=O)C(OC3OCC(O)(CO)C3O)C(O)C2O)C(O)C(O)C1O (stereo unspecified) | > 100 µM | > 100 µM | > 100 µM | > 100 µM |  | > 100 µM |  | > 100 µM | > 100 µM | > 100 µM | > 100 µM |  |  |  |  |  |  | 
CC(=O)Oc1ccc(/C=C/C(=O)O[C@@H](C)[C@H](C)OC(=O)/C=C/c2ccc(OC(C)=O)c(OC(C)=O)c2)cc1OC(C)=O | > 100 µM | 42.3 µM | > 100 µM | 58.4 µM | > 100 µM |  | 44.6 µM | > 100 µM | > 100 µM | 33.8 µM | > 100 µM |  |  |  |  |  |  | 
CCC1C(=O)C[C@H]2[C@@H]3C(O)CC4=CC(=O)CC[C@]4(C)[C@H]3CC[C@]12C (stereo partly specified) | > 50 µM | > 50 µM | > 50 µM | > 50 µM | > 50 µM |  |  | > 50 µM |  | > 50 µM | > 50 µM |  |  |  |  |  |  | 
CC(C)(NC(=O)OCc1ccccc1)C(=O)NC(Cc1ccccc1)C(=O)O (stereo unspecified) (Cbz-[Aib]-[ξF]-OH) |  | > 100 µM | > 100 µM | > 100 µM | > 100 µM | > 100 µM |  | > 100 µM |  | > 100 µM | > 100 µM |  |  |  |  |  |  | 
CC(C)C[C@H](NC(=O)[C@H](Cc1cccc2ccccc12)NC(=O)N1CCOCC1)B(O)O | > 100 µM |  | 0.00182 µM | 0.00154 µM and < 0.0125 µM | 0.000308 µM | 0.00049 µM | 0.00195 µM | 0.0115 µM and < 0.0266 µM | 0.013 µM | 0.00338 µM | 0.00251 µM and < 0.0159 µM | 0.000452 µM | 0.000443 µM | 0.000136 µM | 0.00068 µM | 0.0029 µM | 0.00276 µM | 0.00129 µM
CC(C)/C(Cl)=N/OC(=O)Nc1ccc(F)c(Cl)c1 | 4.13 µM | > 20.2 µM | 6.77 µM | 10.6 µM | 23.4 µM | 30.9 µM | 25.6 µM | 3.21 µM |  | 27.3 µM | 34.2 µM |  |  |  |  |  |  | 
Cc1cnoc1NC1=CC(=O)C(=O)c2ccccc21 | > 100 µM | 44.6 µM | 70.8 µM | > 100 µM | 2.64 µM | > 100 µM |  | 3.53 µM | > 100 µM | 29.9 µM | 10.5 µM |  |  |  |  |  |  | 
Cc1cc2c(cc1Cl)Sc1nnc(Nc3ccccc3)n1S2(=O)=O | 30.3 µM |  | 37.1 µM | 60.1 µM | 54.8 µM | 10.7 µM | 24.2 µM |  | 13.6 µM |  | 21.2 µM |  |  |  |  |  |  | 
Cc1cnc2c(C)ccc([N+](=O)[O-])c2c1NCCCN(C)C | > 100 µM | > 100 µM | > 100 µM | > 100 µM |  | > 100 µM |  | > 100 µM | > 100 µM |  | > 100 µM |  |  |  |  |  |  | 
CC(=O)C(C(C)=O)=C1CCCC(O)O1 (stereo unspecified) | > 100 µM | > 100 µM | > 100 µM | > 100 µM | > 100 µM | > 100 µM | > 100 µM | > 100 µM | > 100 µM | > 100 µM |  |  |  |  |  |  |  | 
CC(C)CCCC(C)[C@H]1CCC2[C@@H]3CCC4Cc5nc6c(nc5C[C@]4(C)C3CC[C@@]21C)CC1CC[C@@H]2C(C[C@@H](O)[C@@]3(C)C2C[C@@H]2OC4(CCC(C)CO4)C(C)[C@@H]23)[C@@]1(C)C6 (stereo partly specified) | > 100 µM | > 100 µM | > 100 µM | > 100 µM | > 100 µM | > 100 µM | > 100 µM | > 100 µM | > 100 µM | > 100 µM |  |  |  |  |  |  |  | 
CCc1cccc(C(C)C)c1NC(=O)C(=O)C(Cc1nc2ccccc2[nH]c1=O)C(=O)OC (stereo unspecified) | > 100 µM | > 100 µM | > 100 µM | > 100 µM |  | > 100 µM | > 100 µM | > 100 µM | > 100 µM | > 100 µM | > 100 µM |  |  |  |  |  |  | 
Cc1ccc(C(=O)N(C2CCCCC2)C2CCCCC2)cc1N=NN(C)C | 22.4 µM | 54.7 µM | 27.8 µM | 32.6 µM | 30 µM | 39.5 µM |  | 28.7 µM | 76.7 µM | 21.6 µM | 7.29 µM |  |  |  |  |  |  | 
COC1=CC(=O)c2ccccc2C1(CCC=C(C)C)C1=NC(C)(C)CO1 (stereo unspecified) | > 100 µM | > 100 µM | > 100 µM | > 100 µM |  | > 100 µM | > 100 µM | > 100 µM | > 100 µM | > 100 µM | > 100 µM |  |  |  |  |  |  | 
O=c1c2ccccc2[nH]c(=S)n1-c1ccc(Br)cc1 | > 100 µM |  | > 100 µM |  |  | > 100 µM | > 100 µM | > 100 µM | > 100 µM |  | > 100 µM |  |  |  |  |  |  | 
CCNC(=O)Nc1cccc(C)n1 | > 100 µM | > 100 µM | > 100 µM | > 100 µM | > 100 µM | > 100 µM | > 100 µM | > 100 µM | > 100 µM | > 100 µM |  |  |  |  |  |  |  | 
